# Columns and labels:
# hTRβ = target: T1, hTRβ (Homo sapiens, UniProt P10828); assay: TR competition binding assay with filter separation; conditions: for IC50: competition with tracer 125I-T3, full length hTRβ, read-out: TR-β IC50; for binding to the TR-β receptor and/or agonistic activity compared to compounds lacking a substituent in the 2-position on the indole ring: versus Comparative Examples 1, 3, 4
# T1 sequence (P10828 1-461): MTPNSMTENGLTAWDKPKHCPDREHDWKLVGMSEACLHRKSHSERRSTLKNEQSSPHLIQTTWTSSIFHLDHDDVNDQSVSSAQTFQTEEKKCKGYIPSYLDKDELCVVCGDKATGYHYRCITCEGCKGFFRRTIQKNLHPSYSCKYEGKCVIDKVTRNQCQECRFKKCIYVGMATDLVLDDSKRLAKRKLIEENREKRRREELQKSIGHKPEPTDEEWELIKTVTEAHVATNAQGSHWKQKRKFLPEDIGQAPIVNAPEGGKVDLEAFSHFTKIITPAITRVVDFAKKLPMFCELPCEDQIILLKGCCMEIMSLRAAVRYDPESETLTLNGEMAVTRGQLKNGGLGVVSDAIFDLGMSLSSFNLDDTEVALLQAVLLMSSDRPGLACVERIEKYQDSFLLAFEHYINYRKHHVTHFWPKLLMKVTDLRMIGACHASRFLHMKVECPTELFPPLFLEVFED
# Method: TR Competition Binding Assay with Filter Separation
# Compounds are tested for their ability to compete with the tracer ^125I-T3 for binding to full length hTRα and hTRβ. Receptor extracts and tracer are diluted in assay buffer (17 mM K2HPO4, 3 mM KH2PO4, 400 mM KCl, 1 mM MgCl2, 0.5 mM EDTA and 8.7% glycerol). ^125I-T3 is diluted to a final concentration of 0.2 nM and receptor is diluted to reach a final count in Trilux Microbeta of approximately 10000 ccpm. […] To 96 well microtiter plates are 100 μl tracer, 4 μl test compound dilution series and 100 μl receptor dilution added. The assay plates are incubated at +4° C. over night (app. 16 hrs incubation). Receptor bound and free tracer are separated over a glass fiber filter ([…] B, PerkinElmer)) on a Tomtec Cellharvester with 18 mM K2HPO4, 2 mM KH2PO4, 0.5 mM EDTA wash buffer. The filters are dried at 60° C. for 1 hour and then merged with a scintillant wax (MELTILEX, PerkinElmer) on a Wallac Microsealer before measuring in a Trilux Microbeta. IC50s, the concentration test compound needed to decrease tracer binding by 50 percent, are generated via analysis of data in XLfit version 2.0 or later with a four parameter logistic model.
# human ThRβ1 = target: T2, human ThRβ1 (Homo sapiens, UniProt P10828); assay: Reporter cell line (TRAF) assay, CHO/hThRβ1, alkaline phosphatase reporter; format: cell-based; conditions: CHO/hThRβ1 reporter cells, 48 hours incubation; read-out: β % agonism
# T2 construct: The cDNAs encoding the full length human ThRα1 and ThRβ1; expressed in transfected cells
# T2 sequence (P10828 1-461): T1 sequence (P10828 1-461)
# From the text: Vector Constructs, Generation of Reporter Cell Lines (TRAF), and Assay Procedure.
# The cDNAs encoding the full length human ThRα1 and ThRβ1 were cloned in the mammalian expression vector pMT-hGH. The pDR4-ALP reporter vector contains one copy of the direct repeat sequence AGGTCA nnnnAGGTCA, fused upstream of the core promoter sequences of the mouse mammary tumor virus long terminal repeat (MMTV), replacing the glucocorticoid response elements. The DR4-MMTV promoter fragment was then cloned in the 5′ end of the cDNA encoding human placental alkaline phosphatase (ALP), followed in the 3′-end by the polyA-signal sequence of the human growth hormone gene. Chinese hamster ovary (CHO) K1 cells (ATCC No. CCL 61) were transfected in two steps, first with the receptor expression vectors pMT-hThRα1 and pMT-ThRβ1, respectively, and the drug resistance vector pSV2-Neo, and in the second step, with the reporter vector pDR4-ALP and the drug resistance vector pKSV-Hyg. Individual drug resistant clones were isolated and selected based on T3 inducibility. One stable reporter cell clone each of CHO/hThRα1 and CHO/hThRβ1 were chosen for further study in response to various thyroid hormone agonists.
# CHO/hThRα1 and CHO/hThRβ1 were seeded in growth medium (Coon's/F12, 10% L-3,5,3′-triiodothyronine and L-thyroxine depleted FCS, 2 mM L-glutamine) in 96-well plates at 20×10^3 cells per well. After 24 hour incubation at 37° C. in humidified chambers, at 5% CO2, conditioned medium was replaced by induction medium (OptiMEM, 2 mM L-glutamine, […] gentamycin) and cells were exposed to the test compounds at serial dilutions, at final DMSO concentration of 0.5%, or to serial dilution of T3 (positive control), to assess agonist activity of test compounds.
# In order to examine antagonistic effect of test compounds, CHO/hThRα1 and […] were exposed to serial dilution of the compounds in the presence of 1 nM T3 (CHO/hThRα1) or 3 nM T3 (CHO/hThRβ1).
# After 48 hours incubation at 37° C. in humidified chambers at 5% CO2 the level of alkaline phosphatase expressed and secreted into the cell culture medium was analyzed by chemiluminescence on MicroBeta Trilux.
SMILES,IC50 (hTRβ) [nM],Emax (human ThRβ1) [%],binding to the TR-β receptor and/or agonistic activity compared to compounds lacking a substituent in the 2-position on the indole ring (hTRβ)
"COc1ccc(-c2[nH]c3ccc(Oc4c(Cl)cc(CCC(=O)O)cc4Cl)cc3c2C(C)C)cc1 [Comparative Example 2, 3-{3,5-Dichloro-4-[3-isopropyl-2-(4-methoxy-phenyl)-1H-indol-5-yloxy]-phenyl}-propionic acid, reference compound]",51.5,80.2,–
"COc1ccc(-c2[nH]c3ccc(Oc4c(Br)cc(CCC(=O)O)cc4Br)cc3c2C)cc1 [Example 3, 3-(3,5-dibromo-4-{[2-(4-methoxyphenyl)-3-methyl-1H-indol-5-yl]oxy}phenyl)propanoic acid]",7.16,97.5,improved binding to the TR-β receptor and/or improved agonistic activity
"CCc1c(-c2ccc3c(c2)OCO3)[nH]c2ccc(Oc3c(Cl)cc(CCC(=O)O)cc3Cl)cc12 [Example 8, 3-(4-{[2-(1,3-benzodioxol-5-yl)-3-ethyl-1H-indol-5-yl]oxy}-3,5-dichlorophenyl)propanoic acid]",2.5,76.9,improved binding to the TR-β receptor and/or improved agonistic activity
"CCc1c(-c2ccc3c(c2)OCO3)[nH]c2ccc(Oc3c(Br)cc(CCC(=O)O)cc3Br)cc12 [Example 9, 3-(4-{[2-(1,3-benzodioxol-5-yl)-3-ethyl-1H-indol-5-yl]oxy}-3,5-dibromophenyl)propanoic acid]",0.33,70.3,improved binding to the TR-β receptor and/or improved agonistic activity
"CCc1c(-c2ccc(OC)cc2)[nH]c2ccc(Oc3c(Br)cc(CCC(=O)O)cc3Br)cc12 [Example 10, 3-(3,5-dibromo-4-{[2-(4-methoxyphenyl)-3-ethyl-1H-indol-5-yl]oxy}phenyl)propanoic acid]",2.77,79.7,improved binding to the TR-β receptor and/or improved agonistic activity

# Further lines, with some results ahead:
IC50 (hTRβ) [nM],Emax (human ThRβ1) [%],SMILES,binding to the TR-β receptor and/or agonistic activity compared to compounds lacking a substituent in the 2-position on the indole ring (hTRβ)
8.88,70.7,"CCCc1c(-c2ccc(OC)cc2)[nH]c2ccc(Oc3c(Br)cc(CCC(=O)O)cc3Br)cc12 [Example 13, 3-(3,5-dibromo-4-{[2-(4-methoxyphenyl)-3-propyl-1H-indol-5-yl]oxy}phenyl)propanoic acid]",improved binding to the TR-β receptor and/or improved agonistic activity
326,69.7,"CCOC(=O)CNc1cc(C)c(Oc2ccc3[nH]cc(C(C)C)c3c2)c(C)c1 [compound 3, reference compound]",–
43.1,39.7,"Cc1cc(NCC(=O)O)cc(C)c1Oc1ccc2[nH]cc(C(C)C)c2c1 [compound 4, reference compound]",–

# Source: patent US20090233979A1, “Indole Derivatives and Their Use as Thyroid Receptor Ligands” (KARO BIO AB, priority 2006, published 2009)
